Measurements published in patent US10906873B2, “Substituted cyclic amides as herbicides” (FMC Corporation, priority 2015, dated 2021).

How the values were obtained:
Type in all cases: in vivo
[1] = system: foxtail, giant (giant foxtail, Setaria faberii); assay: Test A preemergence, foxtail, giant; details: 0 to 100 scale
Procedure, shortened: (§1)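 Pre: seeds planted in loam/sand, directed soil spray. Post: 2–10 cm plants, 1–2 leaf. Formulation: non-phytotoxic solvent + surfactant. Greenhouse ~10 d; visual injury vs untreated, 0 = no effect, 100 = complete control.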

[2] = system: pigweed (Amaranthus retroflexus); assay: Test A postemergence, pigweed; details: 0 to 100 scale
Procedure, shortened: as §1

[3] = system: blackgrass (Alopecurus myosuroides); assay: Test A postemergence, blackgrass; details: 0 to 100 scale
Procedure, shortened: as §1

[4] = system: wheat (Triticum aestivum); assay: Test A postemergence, wheat; details: 0 to 100 scale
Procedure, shortened: as §1

[5] = system: barnyardgrass (Echinochloa crus-galli); assay: Test B flooded paddy test, barnyardgrass; details: Flood, scale of 0 to 100 where 0 is no effect and 100 is complete control, 13 to 15 d
Procedure, shortened: (§2)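 Ratings use a 0-100 visual scale, where 100 is complete control, and compare treated plants with controls after 13 to 15 d of greenhouse growth. Compound went straight into paddy water kept 3 cm over the soil surface, applied to seedlings at the 2-leaf stage.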

rice (Oryza sativa) = assay: Test B flooded paddy test, rice; details: Flood, scale of 0 to 100 where 0 is no effect and 100 is complete control, 13 to 15 d
Procedure, shortened: as §2

[6] = system: barnyardgrass (Echinochloa crus-galli); assay: Test A preemergence, barnyardgrass; details: 0 to 100 scale
Procedure, shortened: as §1

kochia (Kochia scoparia) [7] = assay: Test A postemergence, kochia; details: 0 to 100 scale
Procedure, shortened: as §1

[8] = system: pigweed (Amaranthus retroflexus); assay: Test A preemergence, pigweed; details: 0 to 100 scale
Procedure, shortened: as §1

[9] = system: ragweed (common ragweed, Ambrosia elatior); assay: Test A preemergence, ragweed; details: 0 to 100 scale
Procedure, shortened: as §1

[10] = system: barnyardgrass (Echinochloa crus-galli); assay: Test A postemergence, barnyardgrass; details: 0 to 100 scale
Procedure, shortened: as §1

[11] = system: foxtail, giant (giant foxtail, Setaria faberii); assay: Test A postemergence, foxtail, giant; details: 0 to 100 scale
Procedure, shortened: as §1

[12] = system: sedge, umbrella (small-flower umbrella sedge, Cyperus difformis); assay: Test B flooded paddy test, sedge, umbrella; details: Flood, scale of 0 to 100 where 0 is no effect and 100 is complete control, 13 to 15 d
Procedure, shortened: as §2

[13] = system: ryegrass, It. (Italian ryegrass, Lolium multiflorum); assay: Test A preemergence, ryegrass, It.; details: 0 to 100 scale
Procedure, shortened: as §1

corn (Zea mays) = assay: Test A postemergence, corn; details: 0 to 100 scale
Procedure, shortened: as §1

[14] = system: ducksalad (Heteranthera limosa); assay: Test B flooded paddy test, ducksalad; details: Flood, scale of 0 to 100 where 0 is no effect and 100 is complete control, 13 to 15 d
Procedure, shortened: as §2

[15] = system: ragweed (common ragweed, Ambrosia elatior); assay: Test A postemergence, ragweed; details: 0 to 100 scale
Procedure, shortened: as §1

[16] = system: ryegrass, It. (Italian ryegrass, Lolium multiflorum); assay: Test A postemergence, ryegrass, It.; details: 0 to 100 scale
Procedure, shortened: as §1

kochia (Kochia scoparia) [17] = assay: Test A preemergence, kochia; details: 0 to 100 scale
Procedure, shortened: as §1

[18] = system: galium (catchweed bedstraw, Galium aparine); assay: Test A postemergence, galium; details: 0 to 100 scale
Procedure, shortened: as §1

| Compound | Plant response rating, Foxtail, Giant ([1]; 125 g ai/ha) | Plant response rating, Foxtail, Giant ([1]; 500 g ai/ha) | Plant response rating, Pigweed ([2]; 125 g ai/ha) | Plant response rating, Pigweed ([2]; 500 g ai/ha) | Plant response rating, Blackgrass ([3]; 125 g ai/ha) | Plant response rating, Blackgrass ([3]; 500 g ai/ha) | Plant response rating, Wheat ([4]; 125 g ai/ha) | Plant response rating, Wheat ([4]; 500 g ai/ha) | Plant response rating, Barnyardgrass ([6]; 125 g ai/ha) | Plant response rating, Barnyardgrass ([6]; 500 g ai/ha) | Plant response rating, Kochia (kochia (Kochia scoparia) [7]; 125 g ai/ha) | Plant response rating, Kochia (kochia (Kochia scoparia) [7]; 500 g ai/ha) | Plant response rating, Pigweed ([8]; 125 g ai/ha) | Plant response rating, Pigweed ([8]; 500 g ai/ha) | Plant response rating, Ragweed ([9]; 125 g ai/ha) | Plant response rating, Barnyardgrass ([10]; 125 g ai/ha) | Plant response rating, Barnyardgrass ([10]; 500 g ai/ha) | Plant response rating, Foxtail, Giant ([11]; 125 g ai/ha) | Plant response rating, Foxtail, Giant ([11]; 500 g ai/ha) | Plant response rating, Ryegrass, It. ([13]; 125 g ai/ha) | other results |
| --- | --- | --- | --- | --- | --- | --- | --- | --- | --- | --- | --- | --- | --- | --- | --- | --- | --- | --- | --- | --- | --- |
| O=C1NCC(Cc2ccccc2C(F)(F)F)C1C(=O)Nc1ccccc1C(F)(F)F (centres unmarked) [Compound 5] | 0 | 0 | 0 | 0 | 0 | 0 | 0 | 0 | 0 | 0 | 0 | 0 | 0 | 0 | 0 | 0 | 0 | 0 | 0 | 0 | Plant response rating, Barnyardgrass ([5]; 500 g ai/ha): 0; Plant response rating, Rice (rice (Oryza sativa); 500 g ai/ha): 0; Plant response rating, Ragweed ([9]; 500 g ai/ha): 0; Plant response rating, Sedge, Umbrella ([12]; 500 g ai/ha): 0; Plant response rating, Ryegrass, It. ([13]; 500 g ai/ha): 0; Plant response rating, Corn (corn (Zea mays); 125 g ai/ha): 0; Plant response rating, Corn (corn (Zea mays); 500 g ai/ha): 0; Plant response rating, Ducksalad ([14]; 500 g ai/ha): 0; Plant response rating, Ragweed ([15]; 125 g ai/ha): 0; Plant response rating, Ragweed ([15]; 500 g ai/ha): 0; Plant response rating, Ryegrass, It. ([16]; 125 g ai/ha): 0; Plant response rating, Ryegrass, It. ([16]; 500 g ai/ha): 0; Plant response rating, Kochia (kochia (Kochia scoparia) [17]; 125 g ai/ha): 0; Plant response rating, Kochia (kochia (Kochia scoparia) [17]; 500 g ai/ha): 0; Plant response rating, Galium ([18]; 125 g ai/ha): 0; Plant response rating, Galium ([18]; 500 g ai/ha): 0 |
| O=C(Nc1cccc(C(F)(F)F)c1)C1CNC(=O)C1C(=O)Nc1cccc(F)c1F (centres unmarked) [Compound 18] | 50 | 60 | 0 | 30 | 20 | 30 | 0 | 0 | 20 | 30 | 0 | 0 | 0 | 0 | 0 | 20 | 30 | 20 | 50 | 0 | Plant response rating, Barnyardgrass ([5]; 250 g ai/ha): 30; Plant response rating, Rice (rice (Oryza sativa); 250 g ai/ha): 15; Plant response rating, Sedge, Umbrella ([12]; 250 g ai/ha): 0; Plant response rating, Ryegrass, It. ([13]; 500 g ai/ha): 20; Plant response rating, Corn (corn (Zea mays); 125 g ai/ha): 0; Plant response rating, Corn (corn (Zea mays); 500 g ai/ha): 0; Plant response rating, Ducksalad ([14]; 250 g ai/ha): 40; Plant response rating, Ragweed ([15]; 125 g ai/ha): 0; Plant response rating, Ragweed ([15]; 500 g ai/ha): 0; Plant response rating, Ryegrass, It. ([16]; 125 g ai/ha): 0; Plant response rating, Ryegrass, It. ([16]; 500 g ai/ha): 0; Plant response rating, Kochia (kochia (Kochia scoparia) [17]; 125 g ai/ha): 0; Plant response rating, Kochia (kochia (Kochia scoparia) [17]; 500 g ai/ha): 0; Plant response rating, Galium ([18]; 125 g ai/ha): 0; Plant response rating, Galium ([18]; 500 g ai/ha): 50 |
| O=C1NCC(C#Cc2cccc(Cl)c2)C1C(=O)Nc1ccccc1F (centres unmarked) [Compound 25, 4-[2-(3-chlorophenyl)ethynyl]N-(2-fluorophenyl)-2-oxo-3-pyrrolidinecarboxamide] | 40 | 90 | 0 | 20 | 0 | 0 | 0 | 0 | 60 | 90 | 0 | 0 | 0 | 50 | 0 | 40 | 70 | 30 | 80 | 0 | Plant response rating, Barnyardgrass ([5]; 250 g ai/ha): 0; Plant response rating, Rice (rice (Oryza sativa); 250 g ai/ha): 20; Plant response rating, Ragweed ([9]; 500 g ai/ha): 0; Plant response rating, Sedge, Umbrella ([12]; 250 g ai/ha): 0; Plant response rating, Ryegrass, It. ([13]; 500 g ai/ha): 0; Plant response rating, Corn (corn (Zea mays); 125 g ai/ha): 0; Plant response rating, Corn (corn (Zea mays); 500 g ai/ha): 0; Plant response rating, Ducksalad ([14]; 250 g ai/ha): 85; Plant response rating, Ragweed ([15]; 125 g ai/ha): 0; Plant response rating, Ragweed ([15]; 500 g ai/ha): 0; Plant response rating, Ryegrass, It. ([16]; 125 g ai/ha): 0; Plant response rating, Ryegrass, It. ([16]; 500 g ai/ha): 0; Plant response rating, Kochia (kochia (Kochia scoparia) [17]; 125 g ai/ha): 0; Plant response rating, Kochia (kochia (Kochia scoparia) [17]; 500 g ai/ha): 60; Plant response rating, Galium ([18]; 125 g ai/ha): 0; Plant response rating, Galium ([18]; 500 g ai/ha): 60 |
| O=C1NCC(C#Cc2ccc(F)cc2)C1C(=O)Nc1cccc(F)c1F (centres unmarked) [Compound 16] | 60 | 90 | 0 | 0 | 0 | 0 | 0 | 0 | 20 | 90 | 0 | 0 | 0 | 0 | 0 | 40 | 60 | 20 | 40 | 0 | Plant response rating, Barnyardgrass ([5]; 250 g ai/ha): 0; Plant response rating, Rice (rice (Oryza sativa); 250 g ai/ha): 0; Plant response rating, Ragweed ([9]; 500 g ai/ha): 0; Plant response rating, Sedge, Umbrella ([12]; 250 g ai/ha): 0; Plant response rating, Ryegrass, It. ([13]; 500 g ai/ha): 0; Plant response rating, Corn (corn (Zea mays); 125 g ai/ha): 0; Plant response rating, Corn (corn (Zea mays); 500 g ai/ha): 0; Plant response rating, Ducksalad ([14]; 250 g ai/ha): 70; Plant response rating, Ragweed ([15]; 125 g ai/ha): 0; Plant response rating, Ragweed ([15]; 500 g ai/ha): 0; Plant response rating, Ryegrass, It. ([16]; 125 g ai/ha): 0; Plant response rating, Ryegrass, It. ([16]; 500 g ai/ha): 0; Plant response rating, Kochia (kochia (Kochia scoparia) [17]; 125 g ai/ha): 0; Plant response rating, Kochia (kochia (Kochia scoparia) [17]; 500 g ai/ha): 0; Plant response rating, Galium ([18]; 125 g ai/ha): 0; Plant response rating, Galium ([18]; 500 g ai/ha): 0 |
| O=C1NCC(Cc2cccc(F)c2F)C1C(=O)Nc1ccccc1C(F)(F)F (centres unmarked) [Compound 10] | 0 | 0 | 0 | 0 | 0 | 0 | 0 | 0 | 0 | 0 | 0 | 0 | 0 | 0 | 0 | 0 | 0 | 0 | 0 | 0 | Plant response rating, Barnyardgrass ([5]; 500 g ai/ha): 0; Plant response rating, Rice (rice (Oryza sativa); 500 g ai/ha): 0; Plant response rating, Ragweed ([9]; 500 g ai/ha): 0; Plant response rating, Sedge, Umbrella ([12]; 500 g ai/ha): 0; Plant response rating, Ryegrass, It. ([13]; 500 g ai/ha): 0; Plant response rating, Corn (corn (Zea mays); 125 g ai/ha): 0; Plant response rating, Corn (corn (Zea mays); 500 g ai/ha): 0; Plant response rating, Ducksalad ([14]; 500 g ai/ha): 0; Plant response rating, Ragweed ([15]; 125 g ai/ha): 0; Plant response rating, Ragweed ([15]; 500 g ai/ha): 0; Plant response rating, Ryegrass, It. ([16]; 125 g ai/ha): 0; Plant response rating, Ryegrass, It. ([16]; 500 g ai/ha): 0; Plant response rating, Kochia (kochia (Kochia scoparia) [17]; 125 g ai/ha): 0; Plant response rating, Kochia (kochia (Kochia scoparia) [17]; 500 g ai/ha): 0; Plant response rating, Galium ([18]; 125 g ai/ha): 0; Plant response rating, Galium ([18]; 500 g ai/ha): 0 |
